Values after ≈ are worked out from the molar mass of the structure shown.
Tests used:
Mycolicibacter terrae = experiment: Antimycobacterial activity against Mycobacterium terrae after […] by microbroth dilution method; format: functional
Mycobacterium avium = experiment: Antimycobacterial activity against Mycobacterium avium after […] by microbroth dilution method; format: functional
[1] = system: Mycobacterium tuberculosis; experiment: Antimycobacterial activity against Mycobacterium tuberculosis H37Rv after […] by microbroth dilution method; format: functional
[2] = Acute toxicity in po dosed mouse administered as single dose measured after 14 days; format: organism-based; conditions: in vivo
[3] = Acute toxicity in po dosed mouse; format: organism-based; conditions: in vivo

Structure (SMILES)	MIC (Mycolicibacter terrae) [µM]	MIC (Mycobacterium avium) [µM]	MIC [1] [µM]	LD50 at 336 h [2] [mg/kg]	LD50 [3] [mg/kg]
c1ccc(-c2cncnc2)cc1	80 (≈ 12.5 µg/mL)	80 (≈ 12.5 µg/mL)	80 (≈ 12.5 µg/mL)		
Fc1ccccc1-c1cncnc1	71.8 (≈ 12.5 µg/mL)	71.8 (≈ 12.5 µg/mL)	71.8 (≈ 12.5 µg/mL)		
Fc1cc(F)cc(-c2cncnc2-c2cccs2)c1	45.6 (≈ 12.5 µg/mL)	45.6 (≈ 12.5 µg/mL)	45.6 (≈ 12.5 µg/mL)		
Fc1ccc(-c2cncnc2-c2ccco2)cc1	52 (≈ 12.5 µg/mL)	52 (≈ 12.5 µg/mL)	52 (≈ 12.5 µg/mL)		
Fc1ccc(-c2cncnc2)cc1	71.8 (≈ 12.5 µg/mL)	71.8 (≈ 12.5 µg/mL)	71.8 (≈ 12.5 µg/mL)		
FC(F)(F)c1cc(-c2cncnc2-c2cccs2)cc(C(F)(F)F)c1	33.4 (≈ 12.5 µg/mL)	33.4 (≈ 12.5 µg/mL)	33.4 (≈ 12.5 µg/mL)		
Fc1ccc(-c2cncnc2-c2cccs2)cc1	12.5 (≈ 3.2 µg/mL)	12.5 (≈ 3.2 µg/mL)	48.8 (≈ 12.5 µg/mL)		
Fc1cccc(-c2cncnc2-c2cccs2)c1	12.5 (≈ 3.2 µg/mL)	12.5 (≈ 3.2 µg/mL)	48.8 (≈ 12.5 µg/mL)		
FC(F)(F)c1cccc(-c2cncnc2-c2cccs2)c1	4.9 (≈ 1.5 µg/mL)	4.9 (≈ 1.5 µg/mL)	4.9 (≈ 1.5 µg/mL)		
c1ccc(-c2cncnc2-c2ccco2)cc1	1.57 (≈ 0.349 µg/mL)	1.57 (≈ 0.349 µg/mL)	1.57 (≈ 0.349 µg/mL)	150	
c1ccc(-c2cncnc2-c2cccs2)cc1	26 (≈ 6.2 µg/mL)	26 (≈ 6.2 µg/mL)	26 (≈ 6.2 µg/mL)		
Fc1ccc(-c2cncnc2-c2cccs2)c(F)c1	45.6 (≈ 12.5 µg/mL)	45.6 (≈ 12.5 µg/mL)	45.6 (≈ 12.5 µg/mL)		
Fc1cccc(-c2cncnc2-c2ccco2)c1	6.24 (≈ 1.5 µg/mL)	6.24 (≈ 1.5 µg/mL)	6.24 (≈ 1.5 µg/mL)		
Fc1cc(F)cc(-c2cncnc2-c2ccco2)c1	24 (≈ 6.2 µg/mL)	24 (≈ 6.2 µg/mL)	24 (≈ 6.2 µg/mL)		
FC(F)(F)c1ccccc1-c1cncnc1	27.7 (≈ 6.2 µg/mL)	27.7 (≈ 6.2 µg/mL)	27.7 (≈ 6.2 µg/mL)		
FC(F)(F)c1ccc(-c2cncnc2)cc1	55.8 (≈ 12.5 µg/mL)	55.8 (≈ 12.5 µg/mL)	55.8 (≈ 12.5 µg/mL)		
FC(F)(F)c1ccccc1-c1cncnc1-c1cccs1	20.2 (≈ 6.2 µg/mL)	20.2 (≈ 6.2 µg/mL)	20.2 (≈ 6.2 µg/mL)		
FC(F)(F)c1ccc(-c2cncnc2)c(C(F)(F)F)c1	42.8 (≈ 12.5 µg/mL)	42.8 (≈ 12.5 µg/mL)	42.8 (≈ 12.5 µg/mL)		

Structure (SMILES)	MIC (Mycolicibacter terrae) [µM]	MIC (Mycobacterium avium) [µM]	MIC [1] [µM]	LD50 at 336 h [2] [mg/kg]	LD50 [3] [mg/kg]
Fc1ccc(-c2cncnc2)c(F)c1	16.1 (≈ 3.1 µg/mL)	16.1 (≈ 3.1 µg/mL)	16.1 (≈ 3.1 µg/mL)		
FC(F)(F)c1ccc(-c2cncnc2-c2ccco2)cc1	43.1 (≈ 12.5 µg/mL)	43.1 (≈ 12.5 µg/mL)	43.1 (≈ 12.5 µg/mL)		
FC(F)(F)c1ccc(-c2cncnc2-c2ccco2)c(C(F)(F)F)c1	0.98 (≈ 0.351 µg/mL)	1.95 (≈ 0.699 µg/mL)	1.95 (≈ 0.699 µg/mL)	600	
Fc1cccc(-c2cncnc2)c1	35.9 (≈ 6.25 µg/mL)	35.9 (≈ 6.25 µg/mL)	35.9 (≈ 6.25 µg/mL)		
Fc1cc(F)cc(-c2cncnc2)c1	3.64 (≈ 0.699 µg/mL)	3.64 (≈ 0.699 µg/mL)	3.64 (≈ 0.699 µg/mL)	300	
Fc1ccccc1-c1cncnc1-c1cccs1	12.5 (≈ 3.2 µg/mL)	12.5 (≈ 3.2 µg/mL)	48.8 (≈ 12.5 µg/mL)		
FC(F)(F)c1ccc(-c2cncnc2-c2cccs2)cc1	40.8 (≈ 12.5 µg/mL)	40.8 (≈ 12.5 µg/mL)	40.8 (≈ 12.5 µg/mL)		
Fc1ccc(-c2cncnc2-c2ccco2)c(F)c1	48.4 (≈ 12.5 µg/mL)	48.4 (≈ 12.5 µg/mL)	48.4 (≈ 12.5 µg/mL)		
Fc1ccccc1-c1cncnc1-c1ccco1	52 (≈ 12.5 µg/mL)	52 (≈ 12.5 µg/mL)	52 (≈ 12.5 µg/mL)		
FC(F)(F)c1cccc(-c2cncnc2-c2ccco2)c1	43.1 (≈ 12.5 µg/mL)	43.1 (≈ 12.5 µg/mL)	43.1 (≈ 12.5 µg/mL)		
FC(F)(F)c1ccc(-c2cncnc2-c2cccs2)c(C(F)(F)F)c1	16.6 (≈ 6.2 µg/mL)	16.6 (≈ 6.2 µg/mL)	16.6 (≈ 6.2 µg/mL)		
FC(F)(F)c1ccccc1-c1cncnc1-c1ccco1	43.1 (≈ 12.5 µg/mL)	43.1 (≈ 12.5 µg/mL)	43.1 (≈ 12.5 µg/mL)		
FC(F)(F)c1cccc(-c2cncnc2)c1	55.8 (≈ 12.5 µg/mL)	55.8 (≈ 12.5 µg/mL)	55.8 (≈ 12.5 µg/mL)		
FC(F)(F)c1cc(-c2cncnc2-c2ccco2)cc(C(F)(F)F)c1	8.65 (≈ 3.1 µg/mL)	8.65 (≈ 3.1 µg/mL)	8.65 (≈ 3.1 µg/mL)		
FC(F)(F)c1cc(-c2cncnc2)cc(C(F)(F)F)c1	5.13 (≈ 1.5 µg/mL)	5.13 (≈ 1.5 µg/mL)	5.13 (≈ 1.5 µg/mL)		
NNC(=O)c1ccncc1 [ISONIAZID]	0.73 (≈ 0.1 µg/mL)	0.73 (≈ 0.1 µg/mL)	0.73 (≈ 0.1 µg/mL)		
CC1COc2c(N3CCN(C)CC3)c(F)cc3c(=O)c(C(=O)O)cn1c23 (stereo not given) [OFLOXACIN]	0.28 (≈ 0.101 µg/mL)	0.28 (≈ 0.101 µg/mL)	0.28 (≈ 0.101 µg/mL)		5450
NC(=O)c1cnccn1 [PYRAZINAMIDE]			102 (≈ 12.5 µg/mL)		
